Tests used:
plasma corticosterone = assay: in vivo suppression of plasma corticosterone levels in ACTH-stimulated rats; set-up: species or system Wistar rats; conditions: rat plasma, 4 mg/kg p.o., 2 h after dosing vs 1 h before dosing
Procedure: (§1) The aldosterone- and corticosterone-suppressing activity of herein described compounds may be assessed with the following in vivo protocol.
(§2) Adult male Wistar rats weighing between 250 and 350 grams are kept under the usual 12 hour light and 12 hour dark conditions at a temperature of 23° C.±2° C. On the first day of the experiment, the animals receive a subcutaneous injection of a depot ACTH product in a dose of 1.0 mg/kg weight (SYNACTEN-Depot, Novartis, Basel, CH) 16 hours prior to the administration of a test compound. […] An alternative method to stimulate aldosterone secretion consists in subjecting rats to a low salt diet for 48 hours and applying the diuretic furosemide at 10 mg/kg by subcutaneous or intraperitoneal administration 16 hours, respectively 2 hours prior to the start of the experiment. On the second day of the experiment, the animals are divided into test groups of 5 animals and subjected to a first bleed 1 hour prior to the administration of test compound. Subsequently, and 16 hours after the injection of the ACTH product, the animals receive either vehicle or test compound dissolved in vehicle in a variable dose range from 0.02 to 20 mg/kg by oral gavage. The animals are bled two more times from the vena subclavia under isoflurane anesthesia 2 and 6 hours after dosing. The blood is collected in heparin-treated tubes. The plasma samples are obtained by centrifugation and stored at −20° C. An alternative method to bleed animals time-dependently consists in using animals that are chronically carotid catheterized which allows the periodical sampling of up to 0.2 ml of blood using an AccuSampler (DiLab Europe, Lund, Sweden). The blood sampling with the AccuSampler may occur 1 hour prior to the administration of a test compound and 2, 4, 6, 8, 12, 16 and 24 hours thereafter. The blood samples are anti-coagulated with heparin and centrifuged. The aldosterone and corticosterone concentrations of the plasma samples can be determined with a radioimmunoassay as described above for the in vitro test systems.
(§3) The selective suppression of plasma steroid levels as for instance aldosterone in comparison to corticosterone may serve as a measure for in vivo bioavailability and pharmacodynamic enzyme inhibitory activity of the herein described compounds. The evaluation of the data may occur relative to the application of vehicle or quantitatively by determination of the area under the curve (AUC).

plasma aldosterone = assay: in vivo suppression of plasma aldosterone levels in ACTH-stimulated rats; set-up: species or system Wistar rats; conditions: rat plasma, 4 mg/kg p.o., 2 h after dosing vs 1 h before dosing
Procedure: as §1, §2, §3

Row | Compound | Corticosterone levels (% change at 2 h) (plasma corticosterone) | Aldosterone levels (% change at 2 h) (plasma aldosterone)
1 | CC1(C)CCn2cncc2C1c1ccc(C#N)cc1 (stereo not shown) [Example 16, 4-(7,7-Dimethyl-5,6,7,8-tetrahydroimidazo[1,5-a]pyridin-8-yl)benzonitrile] | −3% | −21%
2 | O=[N+]([O-])c1ccccc1C1CCCn2cncc21 (stereo not shown) [Example 13, 8-(2-Nitrophenyl)-5,6,7,8-tetrahydroimidazo[1,5-a]pyridine] | 0% | −62%
3 | CSc1ccc(C2CCCn3cncc32)cc1 (stereo not shown) [Example 12, 8-(4-Methylsulphanylphenyl)-5,6,7,8-tetrahydroimidazo[1,5-a]pyridine] | 2% | −61%
4 | CC(=O)c1ccc(C2CCn3cncc32)cc1 (stereo not shown) [Example 3, 1-[4-(6,7-Dihydro-5H-pyrrolo[1,2-c]imidazol-7-yl)phenyl]ethanone] | −13% | −53%
5 | Fc1ccc(C2CCn3cncc32)cc1F (stereo not shown) [Example 2, 7-(3,4-Difluorophenyl)-6,7-dihydro-5H-pyrrolo[1,2-c]imidazole] | −32% | −49%
